Patent US11389449B2, “Treatment of metabolic syndrome with an sGC stimulator” (Cyclerion Therapeutics, Inc., priority 2017, dated 2022)

Columns and labels:
ZSF1 obese rats = assay: ZSF1 rat study: serum clinical chemistry (cholesterol, triglycerides), body weight, clinical observations; type: in vivo
From the text: Blood and 24-hour urine samples were obtained from all animals at day 0 (15 weeks of age; prior to the initiation of enalapril treatment). Animals in Groups 3, 7, 8 and 9 were placed on drinking water containing enalapril and kept on Purina 5008 rodent chow (C13000). Animals in Group 1, 2, 4, 5 and 6 were kept on Purina 5008 rodent chow and drinking water. Ten days after the initiation of enalapril treatment, blood and 24-hour urine samples were collected from all animals. After day 10 blood and urine collections, animals in Groups 4, 5 and 6 received Compound I at 1, 3 and 10 mg/kg/day, respectively for 11 weeks. In addition to enalapril treatment, animals in Groups 7, 8 and 9 received Compound I at 1, 3 and 10 mg/kg/day, respectively for an additional 11 weeks.
Body weight and 24-hour water intake were obtained at least once every other week. 24-hour food intake was measured at baseline and week 8.
Plasma (for biomarker) and serum (for clinical chemistry analysis) samples were collected from all treatment groups at baseline, day 10, weeks 5 and 9 prior to placing the animals into the metabolic cages. Plasma samples were obtained from Groups 3-9 for measurement of compound exposure levels at weeks 5 and 11. Terminal plasma and serum samples were obtained at necropsy.
For serum samples, blood was collected in serum separator tubes, maintained at room temperature for at least 30 minutes and then centrifuged at 6000 rpm for 10 minutes. Serum samples were stored at −80° C. until analysis. Urine and serum samples were analyzed using the Randox Daytona Clinical Chemistry Analyzer. All measurements were performed in accordance with manufacturer's instructions.
Animal #8 (in Group 3, ZSF1—enalapril 3 mg/kg/day) was found dead 3 days after the initiation of enalapril treatment.

[1] = test system: patients with stable type 2 diabetes and hypertension; assay: Open-label Phase 2a trial of escalating doses (NCT02906579), metabolic assessments and tolerability; type: in vivo, human; settings: for Change Serum Insulin, Mean / Change Serum Insulin, Median: fasting
From the text: The primary objectives of this clinical study (ClinicalTrials.gov Identifier: NCT02906579) were to assess the acute effects of escalating doses of Compound I on endothelial function (using EndoPAT™—Itamar Medical; Caesarea, Israel- to measure fingertip small vessel pulse volume), blood pressure, heart rate/pulse, safety and tolerability in patients with Type 2 diabetes and a history of hypertension. Patients in this trial were on stable medications for glucose control (blood glucose lowering medication) and hypertension (including an ARB or an ACEi). Secondary measurements included assessment of fasting glucose levels, fasting insulin levels, hemoglobin A1C (HbA1C) levels, serum cholesterol levels, serum triglyceride levels, BMI and body weight.
Allocation: non-randomized; Intervention Model: single group assignment; Masking: non (open-label), Primary purpose: treatment. Single cohort of 11 patients confined to unit. Single clinical site.
Clinic Period: The Clinic Period began at Check-in on Day-1 and ended at Discharge on Day 19. Patients who met eligibility criteria based on Screening Visit assessments were admitted to the Study Center on Day-1 for procedures to confirm eligibility and were confined to the Study Center until Discharge on Day 19. Patients received a standard diet for diabetics. On Days 1 to 18, following an overnight fast of ≥8 hours, eligible patients received once-daily study drug. Safety (adverse event [AE] collection, vital signs, fasting glucose, serum insulin, electro cardiograms [ECGs]) and pharmacokinetic (PK) assessments, including blood collections, were performed at pre-specified times daily (see Schedule of Events). Pharmacodynamic assessments was performed on a 3-day cycle that repeated for each of the 6 dosing cycles (see FIG. 29 and Schedule of Events): the first day included supine and standing cuff BP and pulse measurements; the second day include ambulatory BP monitoring (ABPM), and the third day will include EndoPAT assessments of endothelial function. In addition, blood samples were collected for optional determination of exploratory biomarkers, including metabolic markers associated with metabolic syndrome (see Schedule of Events). On Day 19, after assessments were completed, patients were discharged from the Study Center at the Investigator's discretion. Patients were rescreened should they discontinue in the Screening Period due to visit window deviations or other administrative reasons. In addition, laboratory values, ECG values, or BPs that were outside the range specified in the protocol were repeated to confirm eligibility during the screening period at the Investigator's discretion after consultation with the Medical Monitor.
Escalating single doses (in 3-day cycles) of 10, 20, 30, 40 or 50 mg of Compound I. Compound I has previously been described in WO2014144100. Metabolic parameters, including fasting serum glucose levels, fasting serum insulin levels, hemoglobin A1C (HhA1C) levels, serum lipid levels and body weight, were determined on the second day of each 3-day cycle.
Fasting glucose (mg/dL) was measured in serum both enzymatically. Insulin (pmol/L) was measured by ECLIA. Cholesterol (mg/dL) was measured enzymatically. Triglycerides (mg/dL) were measured enzymatically. HbA1c (%) was measured using Roche Tina Quant.
Compound I was administered as multiples of a 5-mg oral tablet dosage form. Placebo was administered as multiples of a 5 mg tablet. Compound I was formulated as a spray dried dispersion formulation as described in WO2017095697.
Patients received orally administered study drug at approximately the same time (±15 minutes) every day in the morning (8 to 10 AM), after an overnight fast of at least 8 hours. Patients took multiple tablets together as needed to complete the total dose. […]

[2] = obese ZSF1 rats, 3 and 10 mg/kg, compared to placebo and enalapril, not statistically significant
[3] = after escalation 10 to 50 mg over 15 days

In the case of OC(CNc1nc(-c2cc(-c3ccon3)n(Cc3ccccc3F)n2)ncc1F)(C(F)(F)F)C(F)(F)F [Compound I], the reduction of weight (ZSF1 obese rats; obese ZSF1 rats) is reported as “No effects were observed”, the “effect on cholesterol levels” value (ZSF1 obese rats; [2]) is reported as “some reduction in cholesterol was observed” and the “effect on triglyceride levels” value (ZSF1 obese rats; [2]) is reported as “some reduction in TGs was observed”. For the same compound, the clinical observation (ZSF1 obese rats; rat, in vivo, 1 mg/kg/day) was “enlarged left kidney's filled with brown fluid consistent with hydronephrosis”, the Change Serum Insulin, Mean ([1]; 10 mg once daily cycle) was 0.2 µIU/mL and the Change Serum Insulin, Median ([1]; 10 mg once daily cycle) was -0.5 µIU/mL. For the same compound, the Change Serum Insulin, Mean ([1]; 20 mg once daily cycle) was -0.4 µIU/mL, the Change Serum Insulin, Median ([1]; 20 mg once daily cycle) was 0.1 µIU/mL and the Change Serum Insulin, Mean ([1]; 30 mg once daily cycle) was -2.61 µIU/mL. It also gave a Change Serum Insulin, Median ([1]; 30 mg once daily cycle) of -2 µIU/mL, a Change Serum Insulin, Mean ([1]; 40 mg once daily cycle) of -2.49 µIU/mL and a Change Serum Insulin, Median ([1]; 40 mg once daily cycle) of -1.9 µIU/mL. For the same compound, the Change Serum Insulin, Mean ([1]; 50 mg once daily cycle) was -2.7 µIU/mL, the Change Serum Insulin, Median ([1]; 50 mg once daily cycle) was -0.7 µIU/mL and the “reduction in mean fasting glucose level between placebo cycle (day 2) and end of treatment” value ([1]; after escalation 10, 20, 30, 40, 50 mg single oral daily dose) was 20%. The “reduction in mean cholesterol level between baseline (day-1) and end of treatment” value [1, 3] was 23%, the “reduction in serum TGs between day-1 (baseline) and day 19” value [1, 3] was “about 12%” and the “mean reduction of body weight” value ([1]; by end of treatment day 19) was “about 3.5 kg”. The “mean serum TG level” value ([1]; day 19) was 122 mg/dL, the “mean serum cholesterol level” value ([1]; day 19) was 142 mg/dL and the “Mean fasting glucose level” value ([1]; day 19 (end of treatment) after escalation 10 to 50 mg once daily) was 114 mg/dL. For the same compound, the “HbA1C mean reduction from baseline” value ([1]; day 19, actual HbA1C reading) was 0.40%, the “mean body weight relative to baseline (day-1)” value ([1]; each dosage 10 to 50 mg, cumulative over dose escalation) was “decreased for all dosages” and the “change between mean serum cholesterol value on day 19 (end of treatment) and day 32” value ([1]; follow-up after end of dosing) was “+43.3 mg/dL”. The tolerability ([1]; multiple dose escalation 10 to 50 mg once daily) was “well tolerated”.
